Assay results published in patent US12570988B2, “Aptamers that bind thiamine analogs and derivatives” (MeiraGTx Gene Regulation Limited, priority 2020, dated 2026).

Key:
[1] = test system: riboswitch 15D10; experiment: Luciferase reporter with 15D10 riboswitch (Luci-15D10) in HEK 293 cells; format: cell-based, human; settings: Homo sapiens, HEK293, 24 h, 50 μM, HEK 293 cells, read-out: Fold increase in riboswitch 15D10-regulated luciferase expression, HEK
Procedure: Transfection: 3.5×10^4 human embryonic kidney (HEK) 293 cells were plated in a 96-well flat bottom plate the day before transfection. Plasmid DNA (500 ng) was added to a tube or a 96-well U-bottom plate. […] Then, 50 μL of this diluted transfection reagent was added to the DNA, mixed, and incubated at RT for 20 min. Finally, 7 μL of this solution was added to a well of cells in the 96-well plate. Four hours after transfection, medium containing transfection solution was replaced by medium containing either TPP, fursultiamine, prosultiamine, bisbentiamine, beclotiamine hydrochloride, or sulbutiamine as aptamer inducers.
Firefly luciferase assay of cultured cells: Twenty-four hours after media change, plates were removed from the incubator, and equilibrated to RT for several minutes on a lab bench, then aspirated. Glo-lysis buffer (Promega, 100 μL, RT) was added, and the plates allowed to remain at RT for at least 5 minutes. Then, the well contents were mixed by 50 μL trituration, and 20 μL of each sample was mixed with 20 μL of bright-glo reagent (Promega) that had been diluted to 10% in glo-lysis buffer. 96 wells were spaced on an opaque white 384-well plate. Following a 5 min incubation at RT, luminescence was measured using a Tecan machine with 500 ms read time. The luciferase activity was expressed as mean arbitrary light units (ALU)±S.D., and fold induction was calculated as the quotient of the luciferase activity obtained from cells with TPP or analog treatment divided by the luciferase activity obtained from cells without TPP or analog treatment.

[2] = test system: riboswitch 15D10; experiment: Luciferase reporter with 15D10 riboswitch (Luci-15D10) in AML12 cells; format: cell-based, mouse; settings: Mus musculus, AML12, 24 h, 50 μM, AML12 cells, read-out: Fold increase in riboswitch 15D10-regulated luciferase expression, AML

Compound | fold induction at 50 µM ([1]; Table 2) | fold induction at 50 µM ([2]; Table 2) | fold induction at 50 µM ([1]; Table 3) | fold induction at 50 µM ([2]; Table 3)
C/C(=C(\CCO)SCOC(=O)C(c1ccccc1)(c1ccccc1)c1ccccc1)N(C=O)Cc1cnc(C)nc1N [Compound M105, (Z)-((2-(N-((4-amino-2-methylpyrimidin-5-yl)methyl)formamido)-5-hydroxypent-2-en-3-yl)thio)methyl 2,2,2-triphenylacetate] | 0.2 | 0.2 | – | –
C/C(=C(\CCO)SCOC(=O)C(C)(C)c1ccc2ccccc2c1)N(C=O)Cc1cnc(C)nc1N [Compound M107, (Z)-((2-(N-((4-amino-2-methylpyrimidin-5-yl)methyl)formamido)-5-hydroxypent-2-en-3-yl)thio)methyl 2-methyl-2-(naphthalen-2-yl)propanoate] | 26 | 40.2 | – | –
COc1ccc2c(C(=O)S/C(CCO)=C(/C)N(C=O)Cc3cnc(C)nc3N)cccc2c1 [Compound M108, (Z)—S-(2-(N-((4-amino-2-methylpyrimidin-5-yl)methyl)formamido)-5-hydroxypent-2-en-3-yl) 6-methoxynaphthalene-1-carbothioate] | 75.8 | 129 | – | –
CCOc1ccc(C(=O)S/C(CCO)=C(/C)N(C=O)Cc2cnc(C)nc2N)c2ccccc12 [Compound M109, (Z)—S-(2-(N-((4-amino-2-methylpyrimidin-5-yl)methyl)formamido)-5-hydroxypent-2-en-3-yl) 4-ethoxynaphthalene-1-carbothioate] | 22.6 | 87.3 | – | –
CCc1ccc(C(=O)S/C(CCO)=C(/C)N(C=O)Cc2cnc(C)nc2N)c2ccccc12 [Compound M110, (Z)—S-(2-(N-((4-amino-2-methylpyrimidin-5-yl)methyl)formamido)-5-hydroxypent-2-en-3-yl) 4-ethylnaphthalene-1-carbothioate] | 65.7 | 146 | – | –
C/C(=C(\CCO)SC(=O)c1cccc2c(Br)cccc12)N(C=O)Cc1cnc(C)nc1N [Compound M111, (Z)—S-(2-(N-((4-amino-2-methylpyrimidin-5-yl)methyl)formamido)-5-hydroxypent-2-en-3-yl) 5-bromonaphthalene-1-carbothioate] | 181 | 175 | – | –
C/C(=C(\CCO)SC(=O)c1ccccc1Oc1ccccc1)N(C=O)Cc1cnc(C)nc1N [Compound M113, (Z)—S-(2-(N-((4-amino-2-methylpyrimidin-5-yl)methyl)formamido)-5-hydroxypent-2-en-3-yl) 2-phenoxybenzothioate] | 213 | 272 | 265 | 348
C/C(=C(\CCO)SC(=O)c1ccc(C(C)(C)C)cc1)N(C=O)Cc1cnc(C)nc1N [Compound M114, (Z)—S-(2-(N-((4-amino-2-methylpyrimidin-5-yl)methyl)formamido)-5-hydroxypent-2-en-3-yl) 4-(tert-butyl)benzothioate] | 50.1 | 88.8 | – | –
CCOc1cc(C(C)(C)C)ccc1C(=O)S/C(CCO)=C(/C)N(C=O)Cc1cnc(C)nc1N [Compound M115, (Z)—S-(2-(N-((4-amino-2-methylpyrimidin-5-yl)methyl)formamido)-5-hydroxypent-2-en-3-yl) 4-(tert-butyl)-2-ethoxybenzothioate] | 19.9 | 52.1 | – | –
C/C(=C(\CCO)SC(=O)c1c(F)cccc1Oc1ccccc1)N(C=O)Cc1cnc(C)nc1N [Compound M126, (Z)—S-(2-(N-((4-amino-2-methylpyrimidin-5-yl)methyl)formamido)-5-hydroxypent-2-en-3-yl) 2-fluoro-6-phenoxybenzothioate] | – | – | 147 | 305
C/C(=C(\CCO)SC(=O)c1c(Cl)cccc1Oc1ccccc1)N(C=O)Cc1cnc(C)nc1N [Compound M127, (Z)—S-(2-(N-((4-amino-2-methylpyrimidin-5-yl)methyl)formamido)-5-hydroxypent-2-en-3-yl) 2-chloro-6-phenoxybenzothioate] | – | – | 0.46 | 7.39
C/C(=C(\CCO)SC(=O)c1c(C)cccc1Oc1ccccc1)N(C=O)Cc1cnc(C)nc1N [Compound M128, (Z)—S-(2-(N-((4-amino-2-methylpyrimidin-5-yl)methyl)formamido)-5-hydroxypent-2-en-3-yl) 2-methyl-6-phenoxybenzothioate] | – | – | 0.56 | 7.87
C/C(=C(\CCO)SC(=O)c1c(F)cccc1OCc1ccccc1)N(C=O)Cc1cnc(C)nc1N [Compound M129, (Z)—S-(2-(N-((4-amino-2-methylpyrimidin-5-yl)methyl)formamido)-5-hydroxypent-2-en-3-yl) 2-(benzyloxy)-6-fluorobenzothioate] | – | – | 10.9 | 167
C/C(=C(\CCO)SC(=O)c1c(F)cccc1Oc1cccc(Cl)c1)N(C=O)Cc1cnc(C)nc1N [Compound M130, (Z)—S-(2-(N-((4-amino-2-methylpyrimidin-5-yl)methyl)formamido)-5-hydroxypent-2-en-3-yl) 2-(3-chlorophenoxy)-6-fluorobenzothioate] | – | – | 110 | 329
C/C(=C(\CCO)SC(=O)c1cc(Cl)ccc1Oc1ccccc1)N(C=O)Cc1cnc(C)nc1N [Compound M131, (Z)—S-(2-(N-((4-amino-2-methylpyrimidin-5-yl)methyl)formamido)-5-hydroxypent-2-en-3-yl) 5-chloro-2-phenoxybenzothioate] | – | – | 741 | 509
C/C(=C(\CCO)SC(=O)c1ccc(C)cc1Oc1ccccc1Cl)N(C=O)Cc1cnc(C)nc1N [Compound M133, (Z)—S-(2-(N-((4-amino-2-methylpyrimidin-5-yl)methyl)formamido)-5-hydroxypent-2-en-3-yl) 2-(2-chlorophenoxy)-4-methylbenzothioate] | – | – | 100 | 273
C/C(=C(\CCO)SC(=O)c1cc(Cl)ccc1Oc1ccc(F)cc1)N(C=O)Cc1cnc(C)nc1N [Compound M134, (Z)—S-(2-(N-((4-amino-2-methylpyrimidin-5-yl)methyl)formamido)-5-hydroxypent-2-en-3-yl) 5-chloro-2-(4-fluorophenoxy)benzothioate] | – | – | 557 | 408
C/C(=C(\CCO)SC(=O)c1ccccc1Oc1cccc(C#N)c1)N(C=O)Cc1cnc(C)nc1N [Compound M135, (Z)—S-(2-(N-((4-amino-2-methylpyrimidin-5-yl)methyl)formamido)-5-hydroxypent-2-en-3-yl) 2-(3-cyanophenoxy)benzothioate] | – | – | 87.5 | 44.5
C/C(=C(\CCO)SC(=O)c1ccccc1Oc1ccccc1Cl)N(C=O)Cc1cnc(C)nc1N [Compound M136, (Z)—S-(2-(N-((4-amino-2-methylpyrimidin-5-yl)methyl)formamido)-5-hydroxypent-2-en-3-yl) 2-(2-chlorophenoxy)benzothioate] | – | – | 132 | 263
C/C(=C(\CCO)SC(=O)c1ccccc1Oc1ccccc1Br)N(C=O)Cc1cnc(C)nc1N [Compound M137, (Z)—S-(2-(N-((4-amino-2-methylpyrimidin-5-yl)methyl)formamido)-5-hydroxypent-2-en-3-yl) 2-(2-bromophenoxy)benzothioate] | – | – | 140 | 288
C/C(=C(\CCO)SC(=O)c1ccccc1Oc1c(Cl)cccc1Cl)N(C=O)Cc1cnc(C)nc1N [Compound M138, (Z)—S-(2-(N-((4-amino-2-methylpyrimidin-5-yl)methyl)formamido)-5-hydroxypent-2-en-3-yl) 2-(2,6-dichlorophenoxy)benzothioate] | – | – | 228 | 195
C/C(=C(\CCO)SC(=O)c1ccccc1Oc1cccc(C(C)(C)C)c1)N(C=O)Cc1cnc(C)nc1N [Compound M139, (Z)—S-(2-(N-((4-amino-2-methylpyrimidin-5-yl)methyl)formamido)-5-hydroxypent-2-en-3-yl) 2-(3-(tert-butyl)phenoxy)benzothioate] | – | – | 37 | 188
C/C(=C(\CCO)SC(=O)c1ccccc1Oc1ccc2ccccc2c1)N(C=O)Cc1cnc(C)nc1N [Compound M140, (Z)—S-(2-(N-((4-amino-2-methylpyrimidin-5-yl)methyl)formamido)-5-hydroxypent-2-en-3-yl) 2-(naphthalen-2-yloxy)benzothioate] | – | – | 175 | 192
C/C(=C(\CCO)SC(=O)c1ccccc1Oc1cccc2cccnc12)N(C=O)Cc1cnc(C)nc1N [Compound M141, (Z)—S-(2-(N-((4-amino-2-methylpyrimidin-5-yl)methyl)formamido)-5-hydroxypent-2-en-3-yl) 2-(quinolin-8-yloxy)benzothioate] | – | – | 1.61 | 3.46
